Results taken from patent US20220411782A1, “PHAGE COMPOSITIONS COMPRISING CRISPR-CAS SYSTEMS AND METHODS OF USE THEREOF” (priority 2019, published 2022).
Counter-ions that a name gives are not always drawn.

Test system: E. coli strain LFP 527
Assay: Mouse UTI model, pooled CFU results of Examples 7 and 8 (Example 9)
Format: in vivo, Escherichia coli in mice (Mus musculus)
Conditions: for # samples <LOD / Mean log CFU/g: ciprofloxacin IV 5 mg/kg; for Delta from LR: ciprofloxacin IV compared with intravenous LR
Description: The crPhage cocktail was a mixture of phages p0033L-10 (ATCC No. PTA-126316), p004k-5 (ATCC No. PTA-126319), and p0071-16 (ATCC No. PTA-126320) at concentrations of 2×10^11 plaque forming units (PFU)/mL/phage (“high”), 2×10^9 PFU/mL/phage (“medium”), or 2×10^7 PFU/mL/phage (“low”). A 50 μl dose thus provided 1×10^10 PFU/phage (“high”), 1×10^8 PFU/phage (“medium”), or 1×10^6 PFU/phage (“low”). Lactated Ringer's (LR) solution served as a negative control and ciprofloxacin (Cipro) served as a positive control.
Female C3H/HeN mice were infected with E. coli strain LFP 527 via intraurethral (IU) instillation. Beginning 48 hours after infection, a test article of phage cocktail containing p0033L-10, p004k-5, and p0071-16 was administered at time zero and every 12 hours for 48 hours (for a total of 5 doses). Phage cocktail with a range of phage concentrations (Table 16) or vehicle was delivered either intravenously (IV) or by IU instillation into the bladder. The phage cocktails were prepared using LR.

SMILES: O=C(O)c1cn(C2CC2)c2cc(N3CCNCC3)c(F)cc2c1=O [ciprofloxacin, Ciprofloxacin hydrochloride]
- # samples <LOD (Bladder, 54 hours): 0
- Mean log CFU/g (Bladder, 54 hours): 4.96 log CFU/g
- Delta from LR (Bladder, 54 hours): −1.55 (n.s.) log CFU/g
- # samples <LOD (Bladder, 102 hours): 1
- Mean log CFU/g (Bladder, 102 hours): 3.16 log CFU/g
- Delta from LR (Bladder, 102 hours): −2.23 (p = 0.0033) log CFU/g
- # samples <LOD (Kidney, 54 hours): 0
- Mean log CFU/g (Kidney, 54 hours): 3.47 log CFU/g
- Delta from LR (Kidney, 54 hours): −1.66 (n.s.) log CFU/g
- # samples <LOD (Kidney, 102 hours): 3
- Mean log CFU/g (Kidney, 102 hours): 2.03 log CFU/g
- Delta from LR (Kidney, 102 hours): −3.11 (p <0.0001) log CFU/g
